For this experiment, the target named is T1, mTOR (Homo sapiens, UniProt P42345).
T1 construct: FLAG; made in house
Description: In Vitro mTOR Kinase Assay (Echo), Test (a)(ii). Format: biochemical. To be noted: table of enzyme assay Test (a)(ii); read-out: Test (a)(ii) IC50. The gist of the method: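 FLAG-tagged truncated mTOR (residues 1362-2549), expressed in HEK293 and purified via the FLAG tag, phosphorylated a biotinylated peptide over 2 hours at room temperature. EDTA stopped the reaction. Phospho-T389 was detected overnight by AlphaScreen using the p70 S6K T389 antibody with Protein A/streptavidin beads; IC50 reported.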

T1 sequence (P42345 1362-2549): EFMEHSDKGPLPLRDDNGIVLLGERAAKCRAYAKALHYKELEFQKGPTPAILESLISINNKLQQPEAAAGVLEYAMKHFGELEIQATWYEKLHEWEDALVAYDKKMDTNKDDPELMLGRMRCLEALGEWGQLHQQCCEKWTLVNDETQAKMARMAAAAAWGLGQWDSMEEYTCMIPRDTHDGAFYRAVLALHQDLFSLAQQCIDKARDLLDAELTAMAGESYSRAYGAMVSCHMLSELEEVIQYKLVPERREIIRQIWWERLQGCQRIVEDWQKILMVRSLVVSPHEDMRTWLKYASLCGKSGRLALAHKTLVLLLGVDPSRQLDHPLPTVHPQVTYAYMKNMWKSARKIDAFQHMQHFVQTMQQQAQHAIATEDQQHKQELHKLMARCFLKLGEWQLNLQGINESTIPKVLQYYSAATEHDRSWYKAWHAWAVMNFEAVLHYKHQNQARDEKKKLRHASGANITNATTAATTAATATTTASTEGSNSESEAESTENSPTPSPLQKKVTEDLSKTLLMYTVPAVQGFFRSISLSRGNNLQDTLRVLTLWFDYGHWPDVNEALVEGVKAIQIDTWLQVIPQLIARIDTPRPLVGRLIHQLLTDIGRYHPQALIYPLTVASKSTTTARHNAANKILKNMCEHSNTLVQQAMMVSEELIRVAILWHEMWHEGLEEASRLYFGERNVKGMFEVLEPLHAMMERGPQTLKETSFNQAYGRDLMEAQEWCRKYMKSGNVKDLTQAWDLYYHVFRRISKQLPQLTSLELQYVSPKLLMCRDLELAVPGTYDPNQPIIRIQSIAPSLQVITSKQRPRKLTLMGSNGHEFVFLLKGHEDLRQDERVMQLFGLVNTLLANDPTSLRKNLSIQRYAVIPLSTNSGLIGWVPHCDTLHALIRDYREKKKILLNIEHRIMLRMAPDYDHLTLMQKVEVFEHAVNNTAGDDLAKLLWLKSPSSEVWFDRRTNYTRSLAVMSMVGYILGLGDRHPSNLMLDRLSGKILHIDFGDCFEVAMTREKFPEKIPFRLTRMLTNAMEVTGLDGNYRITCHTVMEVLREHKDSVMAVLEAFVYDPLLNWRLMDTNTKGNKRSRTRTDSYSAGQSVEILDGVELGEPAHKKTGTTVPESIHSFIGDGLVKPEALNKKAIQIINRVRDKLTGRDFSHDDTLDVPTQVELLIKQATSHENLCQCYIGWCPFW

In the case of `C[C@H]1COCCN1c1cc(C2(S(=O)(=O)c3cc(F)cc(F)c3)CC2)nc(-c2ccc(NC(=O)Nc3ccccn3)cc2)n1` [Example 19b, 1-[4-[4-[1-(3,5-difluorophenyl)sulfonylcyclopro-pyl]-6-[(3S)-3-methylmorpholin-4-yl]pyrimidin-2-yl]phenyl]-3-pyridin-2-ylurea], the IC50 amounted to 1.19 nM.
The figure for `CC(C)CNC(=O)Nc1ccc(-c2nc(N3CCOC[C@@H]3C)cc(C3(S(=O)(=O)c4cc(F)cc(F)c4)CC3)n2)cc1` [Example 19c, 1-[4-[4-[1-(3,5-difluorophenyl)sulfonylcyclopro-pyl]-6-[(3S)-3-methylmorpholin-4-yl]pyrimidin-2-yl]phenyl]-3-(2-methylpropyl)urea] is 21.4 nM.
The value for `CC(C)NC(=O)Nc1ccc(-c2nc(N3CCOC[C@@H]3C)cc(C3(S(=O)(=O)c4cc(F)cc(F)c4)CC3)n2)cc1` [Example 19d, 1-[4-[4-[1-(3,5-difluorophenyl)sulfonylcyclopro-pyl]-6-[(3S)-3-methylmorpholin-4-yl]pyrimidin-2-yl]phenyl]-3-propan-2-ylurea] was 3.18 nM; that for `CCNC(=O)Nc1ccc(-c2nc(N3CCOC[C@@H]3C)cc(C3(S(=O)(=O)c4cc(F)cc(F)c4)CC3)n2)cc1` [Example 19e, 1-[4-[4-[1-(3,5-difluorophenyl)sulfonylcyclopro-pyl]-6-[(3S)-3-methylmorpholin-4-yl]pyrimidin-2-yl]phenyl]-3-ethylurea] was 1.35 nM; that for `C[C@H]1COCCN1c1cc(C2(S(=O)(=O)c3cc(F)cc(F)c3)CC2)nc(-c2ccc(NC(=O)NCCN(C)C)cc2)n1` [Example 19f, 1-[4-[4-[1-(3,5-difluorophenyl)sulfonylcyclopro-pyl]-6-[(3S)-3-methylmorpholin-4-yl]pyrimidin-2-yl]phenyl]-3-(2-dimethylaminoethyl)urea] was 80.4 nM.
In the case of `C[C@H]1COCCN1c1cc(C2(S(=O)(=O)c3cc(F)cc(F)c3)CC2)nc(-c2ccc(NC(=O)NCCO)cc2)n1` [Example 19g, 1-[4-[4-[1-(3,5-difluorophenyl)sulfonylcyclopro-pyl]-6-[(3S)-3-methylmorpholin-4-yl]pyrimidin-2-yl]phenyl]-3-(2-hydroxyethyl)urea], the IC50 was 0.274 nM.
The value for `CCCNC(=O)Nc1ccc(-c2nc(N3CCOC[C@@H]3C)cc(C3(S(=O)(=O)c4cc(F)cc(F)c4)CC3)n2)cc1` [Example 19h, 1-[4-[4-[1-(3,5-difluorophenyl)sulfonylcyclopro-pyl]-6-[(3S)-3-methylmorpholin-4-yl]pyrimidin-2-yl]phenyl]-3-propylurea] was 2.46 nM.
The value for `CNC(=O)Nc1ccc(-c2nc(N3CCOC[C@@H]3C)cc(C3(S(=O)(=O)c4cc(F)cc(F)c4)CC3)n2)cc1` [Example 19i, 1-[4-[4-[1-(3,5-difluorophenyl)sulfonylcyclopro-pyl]-6-[(3S)-3-methylmorpholin-4-yl]pyrimidin-2-yl]phenyl]-3-methylurea] was 1.52 nM.
For `C[C@H]1COCCN1c1cc(C2(S(=O)(=O)c3cc(F)cc(F)c3)CC2)nc(-c2ccc(NC(=O)Nc3ccc(C(F)(F)F)cc3)cc2)n1` [Example 19j, 1-[4-[4-[1-(3,5-difluorophenyl)sulfonylcyclopro-pyl]-6-[(3S)-3-methylmorpholin-4-yl]pyrimidin-2-yl]phenyl]-3-[4-(trifluoromethyl)phenyl]urea], the IC50 was 19.9 nM.
The value for `C[C@H]1COCCN1c1cc(C2(S(=O)(=O)c3cc(F)cc(F)c3)CC2)nc(-c2ccc(NC(=O)NC(C)(C)CO)cc2)n1` [Example 19k, 1-[4-[4-[1-(3,5-difluorophenyl)sulfonylcyclopro-pyl]-6-[(3S)-3-methylmorpholin-4-yl]pyrimidin-2-yl]phenyl]-3-(1-hydroxy-2-methylpropan-2-yl)urea] was 4.15 nM.
The value for `C[C@H]1COCCN1c1cc(C2(S(=O)(=O)c3cc(F)cc(F)c3)CC2)nc(-c2ccc(NC(=O)NCCCO)cc2)n1` [Example 19l, 1-[4-[4-[1-(3,5-difluorophenyl)sulfonylcyclopro-pyl]-6-[(3S)-3-methylmorpholin-4-yl]pyrimidin-2-yl]phenyl]-3-(3-hydroxypropyl)urea] was 1.52 nM.
In the case of `C[C@H]1COCCN1c1cc(C2(S(=O)(=O)c3cc(F)cc(F)c3)CC2)nc(-c2ccc(NC(=O)Nc3cnn(C)c3)cc2)n1` [Example 19m, 1-[4-[4-[1-(3,5-difluorophenyl)sulfonylcyclopro-pyl]-6-[(3S)-3-methylmorpholin-4-yl]pyrimidin-2-yl]phenyl]-3-(1-methylpyrazol-4-yl)urea], the IC50 worked out at 0.944 nM.
As to `C[C@H]1COCCN1c1cc(C2(S(C)(=O)=O)CCNCC2)nc(-c2ccc(NC(=O)NC3CC3)cc2)n1` [Example 20, 3-Cyclopropyl-1-[4-[4-[(3S)-3-methylmorpholin-4-yl]-6-(4-methylsulfonylpiperidin-4-yl)pyrimidin-2-yl]phenyl]urea], the IC50 is 12.8 nM.
Turning to `CNC(=O)Nc1ccc(-c2nc(N3CCOC[C@@H]3C)cc(C3(S(C)(=O)=O)CCNCC3)n2)cc1` [Example 20a, 3-methyl-1-[4-[4-[(3S)-3-methylmorpholin-4-yl]-6-(4-methylsulfonylpiperidin-4-yl)pyrimidin-2-yl]phenyl]urea], the IC50 is 16.3 nM.
The value for `C[C@H]1COCCN1c1cc(C2(S(C)(=O)=O)CCNCC2)nc(-c2ccc(NC(=O)NCCN(C)C)cc2)n1` [Example 20b, 3-(2-dimethylaminoethyl)-1-[4-[4-[(3S)-3-methylmorpholin-4-yl]-6-(4-methylsulfonylpiperidin-4-yl)pyrimidin-2-yl]phenyl]urea] was 874 nM.
The figure for `C[C@H]1COCCN1c1cc(C2(S(C)(=O)=O)CCNCC2)nc(-c2ccc(NC(=O)NCCO)cc2)n1` [Example 20c, 3-(2-hydroxyethyl)-1-[4-[4-[(3S)-3-methylmorpholin-4-yl]-6-(4-methylsulfonylpiperidin-4-yl)pyrimidin-2-yl]phenyl]urea] is 5.59 nM.
The value for `C[C@H]1COCCN1c1cc(C2(S(C)(=O)=O)CCNCC2)nc(-c2ccc(NC(=O)Nc3cnn(C)c3)cc2)n1` [Example 20d, 1-[4-[4-[(3S)-3-methylmorpholin-4-yl]-6-(4-methylsulfonylpiperidin-4-yl)pyrimidin-2-yl]phenyl]-3-(1-methylpyrazol-4-yl)urea] was 13.3 nM; that for `C[C@H]1COCCN1c1cc(C2(S(=O)(=O)C3CC3)CCNCC2)nc(-c2ccc(NC(=O)NC3CC3)cc2)n1` [Example 21, 3-Cyclopropyl-1-[4-[4-(4-cyclopropylsulfonylpiperidin-4-yl)-6-[(3S)-3-methylmorpholin-4-yl]pyrimidin-2-yl]phenyl]urea] was 25.3 nM; that for `CNC(=O)Nc1ccc(-c2nc(N3CCOC[C@@H]3C)cc(C3(S(=O)(=O)C4CC4)CCNCC3)n2)cc1` [Example 21a, 1-[4-[4-(4-cyclopropylsulfonylpiperidin-4-yl)-6-[(3S)-3-methylmorpholin-4-yl]pyrimidin-2-yl]phenyl]-3-methylurea] was 37.8 nM.
For the compound `C[C@H]1COCCN1c1cc(C2(S(=O)(=O)C3CC3)CCNCC2)nc(-c2ccc(NC(=O)NCCO)cc2)n1` [Example 21b, 1-[4-[4-(4-cyclopropylsulfonylpiperidin-4-yl)-6-[(3S)-3-methylmorpholin-4-yl]pyrimidin-2-yl]phenyl]-3-(2-hydroxyethyl)urea], the IC50 was 13.3 nM.

By IC50 is commonly meant the concentration that gives 50% inhibition.

The record behind these values is patent publication US20090018134A1, “Compounds - 945” (AstraZeneca AB, priority 2007, published 2009).
